Data: ChEMBL document CHEMBL3352029, “Ring fusion strategy for the synthesis of anthra[2,3-d]oxazole-2-thione-5,10-dione homologues as DNA topoisomerase inhibitors and as antitumor agents” (Eur J Med Chem, 2014)

Tests used:
[1] = Cytotoxicity against human PC3 cells assessed as inhibition of cell growth after 48 hrs by sulforhodamine B assay; format: functional, cell-based; settings: PC-3, 48 h
MDA-MB-468 = experiment: Cytotoxicity against human MDA-MB-468 cells assessed as cell growth level at 10 uM after 48 hrs by sulforhodamine B assay; format: functional
U-251 = experiment: Cytotoxicity against human U251 cells assessed as cell growth level at 10 uM after 48 hrs by sulforhodamine B assay; format: functional
MDA-MB-435 = experiment: Cytotoxicity against human MDA-MB-435 cells assessed as cell growth level at 10 uM after 48 hrs by sulforhodamine B assay; format: functional
[2] = Cytotoxicity against human UACC257 cells assessed as cell growth level at 10 uM after 48 hrs by sulforhodamine B assay; format: functional, UACC-257
NCI-H23 = experiment: Cytotoxicity against human NCI-H23 cells assessed as cell growth level at 10 uM after 48 hrs by sulforhodamine B assay; format: functional
SF-268 = experiment: Cytotoxicity against human SF268 cells assessed as cell growth level at 10 uM after 48 hrs by sulforhodamine B assay; format: functional
SK-MEL-28 = experiment: Cytotoxicity against human SK-MEL-28 cells assessed as cell growth level at 10 uM after 48 hrs by sulforhodamine B assay; format: functional
HOP-92 = experiment: Cytotoxicity against human HOP92 cells assessed as cell growth level at 10 uM after 48 hrs by sulforhodamine B assay; format: functional
BT-549 = experiment: Cytotoxicity against human BT549 cells assessed as cell growth level at 10 uM after 48 hrs by sulforhodamine B assay; format: functional
RPMI-8226 = experiment: Cytotoxicity against human RPMI8226 cells assessed as cell growth level at 10 uM after 48 hrs by sulforhodamine B assay; format: functional
A549 = experiment: Cytotoxicity against human A549/ATCC cells assessed as cell growth level at 10 uM after 48 hrs by sulforhodamine B assay; format: functional
SW-620 = experiment: Cytotoxicity against human SW620 cells assessed as cell growth level at 10 uM after 48 hrs by sulforhodamine B assay; format: functional
CAKI-1 = experiment: Cytotoxicity against human CAKI-1 cells assessed as cell growth level at 10 uM after 48 hrs by sulforhodamine B assay; format: functional
RXF 393 = experiment: Cytotoxicity against human RXF393 cells assessed as cell growth level at 10 uM after 48 hrs by sulforhodamine B assay; format: functional
SF-539 = experiment: Cytotoxicity against human SF539 cells assessed as cell growth level at 10 uM after 48 hrs by sulforhodamine B assay; format: functional
[3] = Cytotoxicity against human HCT116 cells assessed as cell growth level at 10 uM after 48 hrs by sulforhodamine B assay; format: functional, HCT-116
SNB-75 = experiment: Cytotoxicity against human SNB75 cells assessed as cell growth level at 10 uM after 48 hrs by sulforhodamine B assay; format: functional
COLO 205 = experiment: Cytotoxicity against human COLO205 cells assessed as cell growth level at 10 uM after 48 hrs by sulforhodamine B assay; format: functional
LOX IMVI = experiment: Cytotoxicity against human LOXIMVI cells assessed as cell growth level at 10 uM after 48 hrs by sulforhodamine B assay; format: functional
CCRF-CEM = experiment: Cytotoxicity against human CCRF-CEM cells assessed as cell growth level at 10 uM after 48 hrs by sulforhodamine B assay; format: functional
ACHN = experiment: Cytotoxicity against human ACHN cells assessed as cell growth level at 10 uM after 48 hrs by sulforhodamine B assay; format: functional
[4] = Cytotoxicity against human UO31 cells assessed as cell growth level at 10 uM after 48 hrs by sulforhodamine B assay; format: functional, UO-31
MCF7 = experiment: Cytotoxicity against human MCF7 cells assessed as cell growth level at 10 uM after 48 hrs by sulforhodamine B assay; format: functional
A498 = experiment: Cytotoxicity against human A498 cells assessed as cell growth level at 10 uM after 48 hrs by sulforhodamine B assay; format: functional
NCI-H322M = experiment: Cytotoxicity against human NCI-H322M cells assessed as cell growth level at 10 uM after 48 hrs by sulforhodamine B assay; format: functional
786-0 = experiment: Cytotoxicity against human 786-0 cells assessed as cell growth level at 10 uM after 48 hrs by sulforhodamine B assay; format: functional
[5] = Cytotoxicity against human NCI-ADR-RES cells assessed as cell growth level at 10 uM after 48 hrs by sulforhodamine B assay; format: functional
DU-145 = experiment: Cytotoxicity against human DU145 cells assessed as cell growth level at 10 uM after 48 hrs by sulforhodamine B assay; format: functional
HT-29 = experiment: Cytotoxicity against human HT-29 cells assessed as cell growth level at 10 uM after 48 hrs by sulforhodamine B assay; format: functional
[6] = Cytotoxicity against human PC3 cells assessed as cell growth level at 10 uM after 48 hrs by sulforhodamine B assay; format: functional, PC-3
SNB-19 = experiment: Cytotoxicity against human SNB19 cells assessed as cell growth level at 10 uM after 48 hrs by sulforhodamine B assay; format: functional
HOP-62 = experiment: Cytotoxicity against human HOP62 cells assessed as cell growth level at 10 uM after 48 hrs by sulforhodamine B assay; format: functional
NCI-H226 = experiment: Cytotoxicity against human NCI-H226 cells assessed as cell growth level at 10 uM after 48 hrs by sulforhodamine B assay; format: functional
[7] = Cytotoxicity against human UACC62 cells assessed as cell growth level at 10 uM after 48 hrs by sulforhodamine B assay; format: functional, UACC-62
NCI-H522 = experiment: Cytotoxicity against human NCI-H522 cells assessed as cell growth level at 10 uM after 48 hrs by sulforhodamine B assay; format: functional
HCC 2998 = experiment: Cytotoxicity against human HCC2998 cells assessed as cell growth level at 10 uM after 48 hrs by sulforhodamine B assay; format: functional
SK-MEL-5 = experiment: Cytotoxicity against human SK-MEL-5 cells assessed as cell growth level at 10 uM after 48 hrs by sulforhodamine B assay; format: functional
T47D = experiment: Cytotoxicity against human T47D cells assessed as cell growth level at 10 uM after 48 hrs by sulforhodamine B assay; format: functional
[8] = Cytotoxicity against human Hs 578T cells assessed as cell growth level at 10 uM after 48 hrs by sulforhodamine B assay; format: functional
SF-295 = experiment: Cytotoxicity against human SF295 cells assessed as cell growth level at 10 uM after 48 hrs by sulforhodamine B assay; format: functional
HL-60(TB) = experiment: Cytotoxicity against human HL-60(TB) cells assessed as cell growth level at 10 uM after 48 hrs by sulforhodamine B assay; format: functional
M14 = experiment: Cytotoxicity against human M14 cells assessed as cell growth level at 10 uM after 48 hrs by sulforhodamine B assay; format: functional
[9] = Cytotoxicity against human OVCAR8 cells assessed as cell growth level at 10 uM after 48 hrs by sulforhodamine B assay; format: functional, OVCAR-8
[10] = Cytotoxicity against human SKOV3 cells assessed as cell growth level at 10 uM after 48 hrs by sulforhodamine B assay; format: functional, SK-OV-3
SN12C = experiment: Cytotoxicity against human SN12C cells assessed as cell growth level at 10 uM after 48 hrs by sulforhodamine B assay; format: functional
KM12 = experiment: Cytotoxicity against human KM12 cells assessed as cell growth level at 10 uM after 48 hrs by sulforhodamine B assay; format: functional
[11] = Cytotoxicity against human OVCAR5 cells assessed as cell growth level at 10 uM after 48 hrs by sulforhodamine B assay; format: functional, OVCAR-5
MDA-MB-231 = experiment: Cytotoxicity against human MDA-MB-231 cells assessed as cell growth level at 10 uM after 48 hrs by sulforhodamine B assay; format: functional
NCI-H460 = experiment: Cytotoxicity against human NCI-H460 cells assessed as cell growth level at 10 uM after 48 hrs by sulforhodamine B assay; format: functional
IGROV-1 = experiment: Cytotoxicity against human IGROV1 cells assessed as cell growth level at 10 uM after 48 hrs by sulforhodamine B assay; format: functional
K562 = experiment: Cytotoxicity against human K562 cells assessed as cell growth level at 10 uM after 48 hrs by sulforhodamine B assay; format: functional
Malme-3M = experiment: Cytotoxicity against human MALME-3M cells assessed as cell growth level at 10 uM after 48 hrs by sulforhodamine B assay; format: functional
MOLT-4 = experiment: Cytotoxicity against human MOLT4 cells assessed as cell growth level at 10 uM after 48 hrs by sulforhodamine B assay; format: functional
[12] = Cytotoxicity against human OVCAR3 cells assessed as cell growth level at 10 uM after 48 hrs by sulforhodamine B assay; format: functional, OVCAR-3
SK-MEL-2 = experiment: Cytotoxicity against human SK-MEL-2 cells assessed as cell growth level at 10 uM after 48 hrs by sulforhodamine B assay; format: functional
[13] = Cytotoxicity against human HCT15 cells assessed as cell growth level at 10 uM after 48 hrs by sulforhodamine B assay; format: functional, HCT-15

CCCSc1nc2cc3c(cc2o1)C(=O)c1ccccc1C3=O
IC50 [1]: > 30 µM

O=C(CN1CCCCC1)Nc1cc2c(cc1O)C(=O)c1ccccc1C2=O
IC50 [1]: 18.5 µM

O=C1c2ccccc2C(=O)c2cc3oc(SCc4ccc([N+](=O)[O-])cc4)nc3cc21
IC50 [1]: > 30 µM

O=C1c2ccccc2C(=O)c2cc3oc(SCc4ccc(F)cc4F)nc3cc21
IC50 [1]: > 30 µM

CCN(CC)CCC(=O)Nc1cc2c(cc1O)C(=O)c1ccccc1C2=O
IC50 [1]: 23.6 µM

CSc1nc2cc3c(cc2o1)C(=O)c1ccccc1C3=O
IC50 [1]: > 30 µM

O=C(CCN1CCCC1)Nc1cc2c(cc1O)C(=O)c1ccccc1C2=O
Activity (MDA-MB-468): 93.65% | IC50 [1]: > 30 µM | Activity (U-251): 95.72% | Activity (MDA-MB-435): 103.97% | Activity [2]: 113% | Activity (NCI-H23): 91.17% | Activity (SF-268): 97.79% | Activity (SK-MEL-28): 104.99% | Activity (HOP-92): 83.51% | Activity (BT-549): 96.56% | Activity (RPMI-8226): 86.61% | Activity (A549): 98.4% | Activity (SW-620): 106.36% | Activity (CAKI-1): 82.42% | Activity (RXF 393): 103.62% | Activity (SF-539): 98.8% | Activity [3]: 98.96% | Activity (SNB-75): 89.48% | Activity (COLO 205): 118.26% | Activity (LOX IMVI): 107.45% | Activity (CCRF-CEM): 87.09% | Activity (ACHN): 82.72% | Activity [4]: 79.74% | Activity (MCF7): 56.43% | Activity (A498): 86.98% | Activity (NCI-H322M): 108.8% | Activity (786-0): 99.72% | Activity [5]: 103.64% | Activity (DU-145): 105.86% | Activity (HT-29): 67.12% | Activity [6]: 91.56% | Activity (SNB-19): 96.45% | Activity (HOP-62): 98.3% | Activity (NCI-H226): 89.38% | Activity [7]: 94.37% | Activity (NCI-H522): 89.35% | Activity (HCC 2998): 98.08% | Activity (SK-MEL-5): 102.47% | Activity (T47D): 74.5% | Activity [8]: 97.73% | Activity (SF-295): 93.19% | Activity (HL-60(TB)): 103.96% | Activity (M14): 96.96% | Activity [9]: 100.18% | Activity [10]: 104.33% | Activity (SN12C): 100.6% | Activity (KM12): 106.65% | Activity [11]: 100.56% | Activity (MDA-MB-231): 92.22% | Activity (NCI-H460): 101.03% | Activity (IGROV-1): 112.79% | Activity (K562): 106.34% | Activity (Malme-3M): 142.32% | Activity (MOLT-4): 114.86% | Activity [12]: 108.53% | Activity (SK-MEL-2): 102.06% | Activity [13]: 97.11%

O=C(CN1CCOCC1)Nc1cc2c(cc1O)C(=O)c1ccccc1C2=O
IC50 [1]: > 30 µM

O=C(CCl)Nc1cc2c(cc1O)C(=O)c1ccccc1C2=O
IC50 [1]: 23.4 µM

O=C1c2ccccc2C(=O)c2cc3oc(SCCc4ccccc4)nc3cc21
IC50 [1]: > 30 µM

O=C1c2ccccc2C(=O)c2cc3oc(SCc4cccc([N+](=O)[O-])c4)nc3cc21
IC50 [1]: > 30 µM

O=C(CCCl)Nc1cc2c(cc1O)C(=O)c1ccccc1C2=O
IC50 [1]: 26.7 µM

O=C(CCN1CCOCC1)Nc1cc2c(cc1O)C(=O)c1ccccc1C2=O
IC50 [1]: > 30 µM

O=C(CN1CCCC1)Nc1cc2c(cc1O)C(=O)c1ccccc1C2=O
IC50 [1]: 26 µM

O=C1COc2cc3c(cc2N1)C(=O)c1ccccc1C3=O
IC50 [1]: > 30 µM

CCN(CC)CC(=O)Nc1cc2c(cc1O)C(=O)c1ccccc1C2=O
IC50 [1]: 20.2 µM

CCCCSc1nc2cc3c(cc2o1)C(=O)c1ccccc1C3=O
IC50 [1]: > 30 µM

O=C1c2ccccc2C(=O)c2cc3oc(SCc4ccccc4)nc3cc21
IC50 [1]: > 30 µM

O=C(CCN1CCCCC1)Nc1cc2c(cc1O)C(=O)c1ccccc1C2=O
IC50 [1]: > 30 µM

O=C1c2ccccc2C(=O)c2cc3oc(SCCN4CCOCC4)nc3cc21
IC50 [1]: > 30 µM

O=C1c2ccccc2C(=O)c2cc3oc(SCc4ccccc4[N+](=O)[O-])nc3cc21
IC50 [1]: > 30 µM

O=C1c2ccccc2C(=O)c2cc3oc(SCCN4CCCCC4)nc3cc21
IC50 [1]: 21.8 µM

O=C1c2ccccc2C(=O)c2cc3oc(SCc4ccccc4F)nc3cc21
IC50 [1]: > 30 µM
